According to paper PMC10146846, “Studying the Mechanism of Interaction of Doxofylline with Human Lysozyme: A Biophysical and In Silico Approach” (Molecules, 2023):

How the values were obtained:
Human lysozyme [1] = target: T1, Human lysozyme (Homo sapiens, UniProt P61626); test: UV-vis absorption titration, double-reciprocal plot; format: binding
T1 construct: gene LYZ
T1 sequence (P61626 19-148): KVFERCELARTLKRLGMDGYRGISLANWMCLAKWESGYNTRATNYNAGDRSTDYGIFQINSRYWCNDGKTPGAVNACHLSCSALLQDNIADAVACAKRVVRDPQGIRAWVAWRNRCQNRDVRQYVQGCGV
Text: UV-vis absorption titration, double-reciprocal plot on Human lysozyme

Human lysozyme [2] = target: T1, Human lysozyme; test: intrinsic fluorescence quenching, excitation […] nm; format: binding; details: double-log; sodium phosphate pH 7.4, lysozyme 10 µM, doxofylline 0–60 µM

Kd (Human lysozyme [1]): 5.18 µM
Kb (Human lysozyme [2]): 22900 M⁻¹
Compound: Cn1c(=O)c2c(ncn2CC2OCCO2)n(C)c1=O [doxofylline]
